Structures are written as SMILES. Where “and” joins values, the source holds several entries; their conditions need not be identical. Equal entries are not always repeated.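 These data come from cells grown in 96-well plates and exposed to compound for 48 hours at five concentrations. GI50 is the concentration that inhibits growth by half. TGI denotes the concentration required for complete inhibition of growth.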

As usually defined, the GI50 is the concentration giving 50% growth inhibition. The term TGI denotes the concentration at which net growth stops. Read a low TGI as greater sensitivity of the cells.

Test systems include UACC-62 melanoma; DU-145 prostate; NCI-H226 lung; SW-620 colon; OVCAR-8 ovarian; A498 renal; EKVX NSCLC; MALME-3M melanoma; MDA-MB-435; CAKI-1 renal.
What all share (test): DTP human tumour cell line panel, 48 h

Turning to `COC(=O)[C@]12CC[C@@H](C)[C@H](C)[C@@H]1C1=CC[C@@H]3[C@@]4(C)C(C=O)=C[C@@](C)(COS(C)(=O)=O)C4[C@H](O)C[C@@]3(C)[C@]1(C)CC2` (some centres undefined), the GI50 in the test on UACC-62 melanoma is 1660 nM; with DU-145 prostate it was 1690 nM; in the test with NCI-H226 lung, 2880 nM; with SW-620 colon, 2360 nM; in the test with OVCAR-8 ovarian, 2080 nM; in the test with A498 renal it was 3740 nM. In addition, the GI50 in the test on EKVX NSCLC is 2140 nM; in the test with MALME-3M melanoma, 1650 nM; in the test on MDA-MB-435 it was 1670 nM; in the test on CAKI-1 renal it was 2050 nM. For the same compound, the TGI in the test on UACC-62 melanoma came to 3.96 µM; in the test on DU-145 prostate, 3.41 µM; with NCI-H226 lung, 7.31 µM; with SW-620 colon, 5.7 µM; with OVCAR-8 ovarian it was 5.71 µM; with A498 renal, 16 µM. The TGI in the test with EKVX NSCLC was 6.28 µM; in the test with MALME-3M melanoma, 3.39 µM; in the test with MDA-MB-435 it was 3.57 µM; in the test on CAKI-1 renal, 5.58 µM.
Take `Cn1cnc2c(F)c(Nc3ccc(Br)cc3F)c(C(=O)NOCCO)cc21`: the 50% growth inhibitory concentration (GI50) was 17.4 nM and 23.4 nM in the test on UACC-62 melanoma; 51100 nM in the test with DU-145 prostate; 29 nM and 44.9 nM with SW-620 colon; > 2170 nM and 99700 nM in the test with OVCAR-8 ovarian; 18.4 nM and 31.4 nM in the test with A498 renal; 109 nM and 503 nM in the test with EKVX NSCLC. Further, the GI50 in the test on MALME-3M melanoma is 13.6 nM and < 10 nM; in the test on MDA-MB-435, 60.9 nM and 54.7 nM; in the test on CAKI-1 renal, 5940 nM. For the same compound, the TGI in the test on UACC-62 melanoma was 0.228 µM and 0.664 µM; in the test with DU-145 prostate it was over 100 µM; with NCI-H226 lung, over 100 µM; with SW-620 colon, over 100 µM; with OVCAR-8 ovarian it was over 100 µM; with A498 renal it was 0.275 µM and 0.394 µM. Besides, the TGI with EKVX NSCLC was over 100 µM; in the test on MALME-3M melanoma it was 0.138 µM and 0.0486 µM; with MDA-MB-435, over 100 µM; with CAKI-1 renal, over 100 µM.
For `COc1ccc(Cn2cc3c(c2-c2cc(OC)c(OC)c(OC)c2)CCc2cnoc2-3)cc1N`, the GI50 in the test with UACC-62 melanoma is 44.7 nM; with DU-145 prostate, 34.3 nM; in the test on NCI-H226 lung, 537 nM; in the test with SW-620 colon, 38 nM; with OVCAR-8 ovarian it was 70.2 nM; in the test with A498 renal, 23.9 nM. The GI50 in the test on EKVX NSCLC is 235 nM; in the test on MALME-3M melanoma, 38.2 nM; in the test with MDA-MB-435, 14.1 nM; with CAKI-1 renal, 31.9 nM. Also, the TGI in the test with UACC-62 melanoma was over 86.9 µM; with DU-145 prostate, 0.355 µM; with NCI-H226 lung, over 100 µM; with SW-620 colon it was over 100 µM; in the test on OVCAR-8 ovarian, over 100 µM; in the test on A498 renal it was 0.524 µM. In addition, the TGI is over 100 µM with EKVX NSCLC, over 100 µM with MALME-3M melanoma, 0.0384 µM in the test with MDA-MB-435 and over 100 µM with CAKI-1 renal.
Consider `COc1ccc(-c2cc(-c3cccc(NS(C)(=O)=O)c3)nc(N)c2C#N)cc1`, for which the GI50 is 45.9 nM with UACC-62 melanoma; 164 nM with DU-145 prostate; 72.5 nM with NCI-H226 lung; 48 nM with SW-620 colon; 222 nM with OVCAR-8 ovarian; 116 nM in the test on A498 renal. The GI50 in the test with EKVX NSCLC was 525 nM; with MALME-3M melanoma, 41.7 nM; in the test on MDA-MB-435, 25.6 nM; with CAKI-1 renal it was 76.6 nM. For the same compound, the TGI in the test on UACC-62 melanoma is 15.9 µM; with DU-145 prostate it was 8.82 µM; in the test with NCI-H226 lung, 28.2 µM; with SW-620 colon it was over 100 µM; in the test on OVCAR-8 ovarian, 34.6 µM; with A498 renal, 54 µM. The TGI is over 81.6 µM with EKVX NSCLC, 21.8 µM in the test with MALME-3M melanoma, 0.121 µM in the test with MDA-MB-435 and over 34.4 µM in the test with CAKI-1 renal.
As to `CN(C)CCSCCO`, the TGI with UACC-62 melanoma, with DU-145 prostate, in the test on NCI-H226 lung, in the test with SW-620 colon, in the test with OVCAR-8 ovarian and in the test on A498 renal was over 100 µM each time. In addition, the TGI in the test on EKVX NSCLC, with MALME-3M melanoma, in the test on MDA-MB-435 and in the test with CAKI-1 renal was over 100 µM throughout.
Consider `Clc1ccc(CNc2nccc(-c3cnn4ncccc34)n2)cc1`, for which the GI50 in the test on UACC-62 melanoma is 3740 nM; with DU-145 prostate it was 8730 nM; with NCI-H226 lung it was 7790 nM; in the test on SW-620 colon it was 8420 nM; with OVCAR-8 ovarian, 6630 nM; with A498 renal it was 5070 nM. Besides, the GI50 in the test on EKVX NSCLC was 5540 nM; with MALME-3M melanoma, 8940 nM; in the test on MDA-MB-435, 6300 nM; with CAKI-1 renal, 5620 nM. In addition, the TGI was 8.73 µM in the test with UACC-62 melanoma; over 25 µM with DU-145 prostate; over 25 µM in the test with NCI-H226 lung; over 25 µM with SW-620 colon; over 25 µM with OVCAR-8 ovarian; 10.4 µM in the test on A498 renal. The TGI was over 19.9 µM in the test with EKVX NSCLC, 23.3 µM in the test on MALME-3M melanoma, 20.6 µM in the test on MDA-MB-435 and over 18.8 µM in the test on CAKI-1 renal.
Take `Nc1cc(S(N)(=O)=O)ccc1SSc1ccc(S(N)(=O)=O)cc1N`: the TGI in the test with UACC-62 melanoma, with DU-145 prostate, with NCI-H226 lung, with SW-620 colon, in the test with OVCAR-8 ovarian and with A498 renal was over 100 µM each time. The TGI with EKVX NSCLC, with MALME-3M melanoma, in the test on MDA-MB-435 and with CAKI-1 renal was over 100 µM in each case.
On to `CCN(CC)CCn1c2ccc(OC)cc2c2sc3cc(OC)ccc3c(=O)c21`, for which the GI50 in the test with UACC-62 melanoma was 1800 nM; in the test with DU-145 prostate, 1670 nM; in the test with NCI-H226 lung it was 2460 nM; with SW-620 colon, 825 nM; in the test with OVCAR-8 ovarian, 1930 nM; in the test on A498 renal, 1120 nM. The GI50 is 1600 nM in the test with EKVX NSCLC, 1590 nM in the test with MALME-3M melanoma, 1730 nM in the test on MDA-MB-435 and 1650 nM in the test on CAKI-1 renal. Besides, the TGI with UACC-62 melanoma was 3.47 µM; in the test with DU-145 prostate, 3.7 µM; in the test with NCI-H226 lung, 7.49 µM; in the test with SW-620 colon it was 2.41 µM; in the test on OVCAR-8 ovarian it was 11.3 µM; with A498 renal, 2.35 µM. Besides, the TGI in the test with EKVX NSCLC worked out at 3.36 µM; in the test on MALME-3M melanoma, 3.18 µM; in the test on MDA-MB-435 it was 3.22 µM; in the test on CAKI-1 renal, 3.77 µM.
